# The Deep4Chem optical property database
# “And” between values parts separate entries of the source, which are not always exact repeats. Equal values may be shown once.
# Test: solvent given as SMILES
compound,measurement,setting,value
N#CC1=CC=CC(C#N)=P1(c1ccccc1)c1ccccc1,emission maximum,in ClC(Cl)Cl,491 nm
c1ccc(-c2nc(-c3ccccc3)nc(-c3ccc(-n4c5ccccc5c5ccc6c(c7ccccc7n6-c6ccccc6)c54)cc3)n2)cc1,emission maximum,in Cc1ccccc1,466.56 nm and 461 nm
same,emission maximum,in O=P(c1ccccc1)(c1ccccc1)c1ccc2oc3ccc(P(=O)(c4ccccc4)c4ccccc4)cc3c2c1,479 nm
COc1ccc(C2=C(c3ccc([N+](=O)[O-])cc3)C(c3ccccc3)=[N+]3C2=Nc2c(-c4ccc(OC)cc4)c(-c4ccc([N+](=O)[O-])cc4)c(-c4ccccc4)n2[B-]3(F)F)cc1,emission maximum,in Cc1ccccc1,688 nm
CCCCCCCCCCCCOc1cc2c3cc(OCCCCCCCCCCCC)c(OCCCCCCCCCCCC)cc3c3c(cc(OCCCCCCCCCCCC)c4nc5cc(C#Cc6ccc(CCCCCCCCCC)cc6)c(C#Cc6ccc(CCCCCCCCCC)cc6)cc5nc43)c2cc1OCCCCCCCCCCCC,emission maximum,in ClC(Cl)Cl,663 nm
O=[N+]([O-])c1ccc([N+]2=CC3=C(O[B-]2(F)F)c2ccccc2SC3)cc1,emission maximum,in ClCCl,575 nm
C1=C(c2ccc(-c3cccs3)s2)CCCC1,emission maximum,in C1CCOC1,423 nm
same,emission maximum,in CC#N,415 nm
same,emission maximum,in CCCCCC,411 nm
same,emission maximum,in CCO,445 nm
same,emission maximum,in OCCOCCO,446 nm
same,emission maximum,in c1ccncc1,423 nm
CC(=O)O[B-]1(OC(C)=O)OC(/C=C/C=C/c2ccccc2)=CC(/C=C/C=C/c2ccccc2)=[O+]1,emission maximum,in C1CCOC1,531 nm
same,emission maximum,in CC#N,550 nm
same,emission maximum,in CC(C)=O,544 nm
same,emission maximum,in CS(C)=O,558 nm
same,emission maximum,in Cc1ccccc1,523 nm
same,emission maximum,in ClC(Cl)Cl,543 nm
same,emission maximum,in ClCCl,545 nm
COCCOCCOc1cc(C=O)c(OCCOCCOC)cc1C=O,emission maximum,in CC(C)(C)O,478 nm
same,emission maximum,in CC(C)CO,481 nm
same,emission maximum,in CC(C)O,481 nm
same,emission maximum,in CCCCO,467 nm
same,emission maximum,in CCCO,464 nm
same,emission maximum,in CCO,464 nm
same,emission maximum,in CN(C)C=O,466 nm
same,emission maximum,in CNC=O,450 nm
same,emission maximum,in CO,466 nm
same,emission maximum,in NC=O,458 nm
same,emission maximum,in O,496 nm
Cc1nn(-c2ccccc2)c(C2=NN(c3ccc(Br)cc3)[C@@H](c3ccccc3)[C@@H]2c2ccccc2)c1C#N,emission maximum,in C1CCCCC1,468 nm
same,emission maximum,in C1CCOC1,483 nm
same,emission maximum,in C1COCCO1,481 nm
same,emission maximum,in CC#N,491 nm
same,emission maximum,in CCCCCCC,467 nm
same,emission maximum,in CCO,493 nm
same,emission maximum,in CN(C)C=O,492 nm
same,emission maximum,in CO,496 nm
same,emission maximum,in O,485 nm
same,emission maximum,in OCCO,500 nm
CCOC(=O)C1=C(C)NC2=C(C(=O)c3ccccc32)C1c1ccc(N(C)C)cc1 (centres undefined),emission maximum,in C1CCOC1,497 nm
same,emission maximum,in C1COCCO1,490 nm
same,emission maximum,in CC#N,542 nm
same,emission maximum,in CCO,559 nm
same,emission maximum,in CN(C)C=O,540 nm
same,emission maximum,in CO,561 nm
same,emission maximum,in CS(C)=O,548 nm
same,emission maximum,in ClC(Cl)(Cl)Cl,475 nm
same,emission maximum,in ClC(Cl)Cl,532 nm
same,emission maximum,in ClCCl,530 nm
Oc1ccccc1/N=C/c1ccccc1Oc1ccccc1,emission maximum,in C1CCCCC1,413 nm
same,emission maximum,in C1CCOC1,412 nm
same,emission maximum,in C1COCCO1,410 nm
same,emission maximum,in CC#N,410 nm
same,emission maximum,in CC(C)=O,410 nm
same,emission maximum,in CC(C)CO,409 nm
same,emission maximum,in CC(C)O,406 nm
same,emission maximum,in CCCCC,425 nm
same,emission maximum,in CCCCCCCCO,414 nm
same,emission maximum,in CCCCCCCO,410 nm
same,emission maximum,in CCCCCCO,410 nm
same,emission maximum,in CCCCO,395 nm
same,emission maximum,in CCCCOC(C)=O,409 nm
same,emission maximum,in CCCO,410 nm
same,emission maximum,in CCO,408 nm
same,emission maximum,in CCOC(C)=O,400 nm
same,emission maximum,in CCOCC,420 nm
same,emission maximum,in CN(C)C=O,418 nm
same,emission maximum,in CO,414 nm
same,emission maximum,in CS(C)=O,410 nm
same,emission maximum,in Cc1ccccc1,411 nm
same,emission maximum,in Cc1ccccc1C,412 nm
same,emission maximum,in ClC(Cl)Cl,410 nm
same,emission maximum,in ClCCl,415 nm
same,emission maximum,in N#Cc1ccccc1,410 nm
same,emission maximum,in OCCO,415 nm
same,emission maximum,in c1ccccc1,410 nm
COc1cc(OC)cc(C2=[O+][B-](F)(F)OC(c3ccc4cc(OC)ccc4c3)=C2)c1,emission maximum,in CC#N,550.5 nm
same,emission maximum,in CC(C)=O,533.32 nm
same,emission maximum,in CCCCCC,430.95 nm
same,emission maximum,in Cc1ccccc1,475.78 nm
same,emission maximum,in ClCCl,520 nm
CCN(CC)c1ccc2cc(-c3nc4cc(C(=O)Nc5cccc(C)c5)ccc4o3)c(=O)oc2c1,emission maximum,in ClCCl,495 nm
CN(C)CCCN1c2ccccc2Sc2ccccc21,emission maximum,in CC#N,444 nm
same,emission maximum,in CO,444 nm
same,emission maximum,in O,452 nm
CC[n+]1c(-c2ccccc2)c2cc(N)ccc2c2ccc(-n3cccc3)cc21,emission maximum,in O,592 nm
N#Cc1c(-n2c3ccccc3c3cc(Br)ccc32)c(-n2c3ccccc3c3cc(Br)ccc32)c(C#N)c(-n2c3ccccc3c3cc(Br)ccc32)c1-n1c2ccccc2c2cc(Br)ccc21,emission maximum,in Cc1ccccc1,543 nm
O=c1oc2ccccc2cc1-c1ccc(-c2ccc(-c3cc4ccccc4oc3=O)cc2)cc1,emission maximum,in ClCCl,430 nm
O=P1(c2ccccc2)c2cc(N3c4ccccc4Sc4ccccc43)ccc2-c2ccc(N3c4ccccc4Sc4ccccc43)cc21,emission maximum,in Cc1ccccc1,557 nm
same,emission maximum,in c1ccc2c(c1)c1ccccc1n2-c1ccc(-c2ccc(-n3c4ccccc4c4ccccc43)cc2)cc1,554 nm
O=c1oc2ccccc2cc1-c1ccc(-c2cc3ccccc3oc2=O)cc1,emission maximum,in CC#N,426 nm
same,emission maximum,in CCO,426 nm
same,emission maximum,in CCOC(C)=O,426 nm
same,emission maximum,in CS(C)=O,430 nm
same,emission maximum,in Cc1ccccc1,424 nm
same,emission maximum,in ClC(Cl)Cl,430 nm
CN(C)c1cc(-c2ccc(C#Cc3cc[n+](C)cc3)cc2)cc2ccccc12,emission maximum,in ClCCl,510 nm
CN1C(=CC2=C([O-])C(=Cc3sc4ccccc4[n+]3C)C2=C(C#N)C#N)Sc2ccccc21,emission maximum,in ClC(Cl)Cl,723 nm
N[C@@H](Cn1nnc2cc(-c3ccc(N4CCOCC4)cc3)ccc21)C(=O)O,emission maximum,in CO,384 nm
CCC1=C(C)C2=Cc3c4ccccc4c4n3[B-](c3cc[n+](C)cc3)(Oc3ccccc3-4)[N+]2=C1C=Cc1ccc(OC)cc1 (centres undefined),emission maximum,in CO,717 nm
same,emission maximum,in CS(C)=O,727 nm
CC[C@H](C)COc1ccc(C2=C3C(C)=C(c4ccc5ccc6cccc7ccc4c5c67)C(C)=[N+]3[B-](F)(F)n3c(C)c(-c4ccc5ccc6cccc7ccc4c5c67)c(C)c32)cc1,emission maximum,in ClCCl,585 nm
C1=Cc2ccc(N(c3ccccc3)c3ccccc3)cc2Cc2cc(N(c3ccccc3)c3ccccc3)ccc21,emission maximum,in ClCCl,440 nm
COc1ccc(-c2nc(-c3ccc(C)cc3)c3ccccn23)cc1,emission maximum,in ClC(Cl)Cl,521 nm
O=S1(=O)C(c2ccsc2)=C(c2ccsc2)c2ccccc21,emission maximum,in C1CCOC1,433 nm
Fc1nc(F)c(F)c(C#Cc2nccnc2C#Cc2c(F)c(F)nc(F)c2F)c1F,emission maximum,in CC#N,440 nm
N#Cc1nc(N(Cc2ccccc2Cl)Cc2ccccc2Cl)c(C#N)nc1N(Cc1ccccc1Cl)Cc1ccccc1Cl,emission maximum,in ClC(Cl)Cl,567 nm
CC(=O)c1c2c(cc3c(N(C)C)cccc13)CCC2,emission maximum,in C1CCCCC1,480 nm
same,emission maximum,in C1CCOC1,543 nm
same,emission maximum,in C1COCCO1,534 nm
same,emission maximum,in CC#N,590 nm
same,emission maximum,in CCO,634 nm
same,emission maximum,in CS(C)=O,598 nm
same,emission maximum,in Cc1ccccc1,520 nm
same,emission maximum,in ClC(Cl)Cl,562 nm
same,emission maximum,in ClCCl,562 nm
CCCCN(CCCC)c1ccc(C#Cc2cc(C#Cc3ccc(C#N)cc3)c(C#Cc3ccc(N(CCCC)CCCC)cc3)cc2C#Cc2ccc(C#N)cc2)cc1,emission maximum,in ClCCl,563 nm
same,emission maximum,in c1ccccc1,530 nm
